Structures are written as SMILES.

For one test, the system named is HBV viral load (viral production from HepAD38 cells). Description: Activity of test compounds on viral production from HepAD38 cells (viral load by qPCR of HBV core sequence). Type of test: cell-based. To be noted: Hepatitis B virus, HePAD38, 120 h, viral load lowering, 5 days, qPCR of supernatant, read-out: VL HepAD38 EC50 range. The gist of the method: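 EC50 and CC50 come from four-parameter logistic fits: HBV core DNA in supernatant by TaqMan qPCR against DNA standards, normalised to DMSO controls, and cell viability by CellTiter-Glo. Cells were plated at 50,000/well without tetracycline (2% FBS) and exposed to compounds (highest 10 μM) for 5 days, 37 °C.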
A general note: In qPCR the cycle at which signal appears reflects the starting amount.
`Cn1cc(CC2(O)CC3CC(c4ncn(C)c4C(=O)Nc4ccc(F)c(Cl)c4)CC3C2)cn1` (stereo not drawn) [Example 130, N-(3-chloro-4-fluorophenyl)-4-(5-hydroxy-5-((1-methyl-1H-pyrazol-4-yl)methyl)octahydropentalen-2-yl)-1-methyl-1H-imidazole-5-carboxamide]: the EC50 is below 10 nM.

On to `CC(=O)Nc1cc(C2(O)CC3CC(c4ncn(C)c4C(=O)Nc4ccc(F)c(Cl)c4)CC3C2)n(C)n1` (stereo not drawn) [Example 163, 4-(5-(3-Acetamido-1-methyl-1H-pyrazol-5-yl)-5-hydroxyoctahydropentalen-2-yl)-N-(3-chloro-4-fluorophenyl)-1-methyl-1H-imidazole-5-carboxamide], for which the EC50 was below 10 nM. On the same count and under the same terms, for `CN1CCn2c(nc(C3CC4CC(O)CC4C3)c2C(=O)Nc2ccc(F)c(Cl)c2)C1` (stereo not drawn) [Example 91, N-(3-chloro-4-fluorophenyl)-2-(5-hydroxyoctahydropentalen-2-yl)-7-methyl-5,6,7,8-tetrahydroimidazo[1,2-a]pyrazine-3-carboxamide] the value was below 10 nM. In the case of `CS(=O)(=O)CC1(O)CC2CC(c3nc4n(c3C(=O)Nc3ccc(F)c(Cl)c3)CCC4)CC2C1` (single isomer, unassigned) [Example 35, N-(3-Chloro-4-fluorophenyl)-2-(5-hydroxy-5-((methylsulfonyl)methyl)octahydropentalen-2-yl)-6,7-dihydro-5H-pyrrolo[1,2-a]imidazole-3-carboxamide], the EC50 is below 10 nM. Still for that read-out and setting: for `Cn1cnc(C2CC3CC(O)(c4c(F)c(OCC(O)C(F)(F)F)nn4C)CC3C2)c1C(=O)Nc1ccc(F)c(Cl)c1` (stereo not drawn) [Example 62, N-(3-Chloro-4-fluorophenyl)-4-(5-(4-fluoro-1-methyl-3-(3,3,3-trifluoro-2-hydroxypropoxy)-1H-pyrazol-5-yl)-5-hydroxyoctahydropentalen-2-yl)-1-methyl-1H-imidazole-5-carboxamide] the value was below 10 nM; for `CCNc1nc(C2CC3CC(O)CC3C2)c(C(=O)Nc2ccc(F)c(Cl)c2)n1C` (stereo not drawn) [Example 41, 5-[-5-Hydroxy-1,2,3,3a,4,5,6,6a-octahydropentalen-2-yl]-N-(3-chloro-4-fluorophenyl)-2-(ethylamino)-3-methyl-4-imidazolecarboxamide], 10 to 50 nM. The same measure, in the same setting: for `Cn1cnc(C2CC3CC(O)(c4cc(OCC(C)(O)CO)nn4C)CC3C2)c1C(=O)Nc1ccc(F)c(Cl)c1` (stereo not drawn) [Example 218, N-(3-Chloro-4-fluorophenyl)-4-(5-(3-(2,3-dihydroxy-2-methylpropoxy)-1-methyl-1H-pyrazol-5-yl)-5-hydroxyoctahydropentalen-2-yl)-1-methyl-1H-imidazole-5-carboxamide] the value was below 10 nM. Turning to `Cn1cnc(C2CC3CC(O)(CO)CC3C2)c1C(=O)Nc1ccc(F)c(Cl)c1` (single isomer, unassigned) [Example 19, N-(3-Chloro-4-fluorophenyl)-4-(5-hydroxy-5-(hydroxymethyl)octahydro-pentalen-2-yl)-1-methyl-1H-imidazole-5-carboxamide], the EC50 is below 10 nM. `O=C1CC2CC(c3ncsc3C(=O)Nc3ccc(F)c(Cl)c3)CC2C1` (stereo not drawn) [Example 38, N-(3-Chloro-4-fluorophenyl)-4-(5-oxooctahydropentalen-2-yl)thiazole-5-carboxamide]: the EC50 is below 10 nM. For `Cn1cnc(C2CC3CC(O)(c4cc(C(O)C(F)(F)F)nn4C)CC3C2)c1C(=O)Nc1ccc(F)c(C#N)c1` (stereo not drawn) [Example 107, N-(3-Cyano-4-fluorophenyl)-4-(5-hydroxy-5-(1-methyl-3-(2,2,2-trifluoro-1-hydroxyethyl)-1H-pyrazol-5-yl)octahydropentalen-2-yl)-1-methyl-1H-imidazole-5-carboxamide], the EC50 was below 10 nM. Turning to `Cn1cnc(C2CC3CC(O)(c4cc(C(C)(C)C)nn4C)CC3C2)c1C(=O)Nc1ccc(F)c(Cl)c1` (single isomer, unassigned) [Example 74], the 50% effective concentration (EC50) was below 10 nM. Still for that read-out and setting: for `Cn1cc(C2(O)CC3CC(c4nc(Cl)n(C)c4C(=O)Nc4ccc(F)c(Cl)c4)CC3C2)c(C(F)(F)F)n1` (stereo not drawn) [Example 110, 2-Chloro-N-(3-chloro-4-fluorophenyl)-4-(5-hydroxy-5-(1-methyl-3-(trifluoromethyl)-1H-pyrazol-4-yl)octahydropentalen-2-yl)-1-methyl-1H-imidazole-5-carboxamide] the value was below 10 nM; for `Cn1nc(C(F)(F)F)cc1C1(O)CC2CC(c3nc(Cl)n(C)c3C(=O)Nc3ccc(F)c(Cl)c3)CC2C1` (stereo not drawn) [Example 111, 2-Chloro-N-(3-chloro-4-fluorophenyl)-4-(5-hydroxy-5-(1-methyl-3-(trifluoromethyl)-1H-pyrazol-5-yl)octahydropentalen-2-yl)-1-methyl-1H-imidazole-5-carboxamide], 10 to 50 nM; for `Cn1c(C#N)nc(C2CC3CC(O)CC3C2)c1C(=O)Nc1ccc(F)c(Cl)c1` (stereo not drawn) [Example 42, 5-[-5-Hydroxy-1,2,3,3a,4,5,6,6a-octahydropentalen-2-yl]-N-(3-chloro-4-fluorophenyl)-2-cyano-3-methyl-4-imidazolecarboxamide], 10 to 50 nM. As for `CCC(C)n1nc(N)cc1C1(O)CC2CC(c3ncn(C)c3C(=O)Nc3ccc(F)c(Cl)c3)CC2C1` (stereo not drawn) [Example 161, 4-(5-(3-Amino-1-(sec-butyl)-1H-pyrazol-5-yl)-5-hydroxyoctahydropentalen-2-yl)-N-(3-chloro-4-fluorophenyl)-1-methyl-1H-imidazole-5-carboxamide], the 50% effective concentration (EC50) was below 10 nM. In the case of `Cn1cc(C2(O)CC3CC(c4ncn(C)c4C(=O)Nc4ccc(F)c(Cl)c4)CC3C2)c(Br)n1` (stereo not drawn) [Example 182, 4-(5-(3-Bromo-1-methyl-1H-pyrazol-4-yl)-5-hydroxyoctahydropentalen-2-yl)-N-(3-chloro-4-fluorophenyl)-1-methyl-1H-imidazole-5-carboxamide], the half-maximal effective concentration (EC50) is below 10 nM. `Cn1cc(C2(O)CC3CC(c4ncn(C)c4C(=O)Nc4ccc(F)c(Cl)c4)CC3C2)c(F)n1` (stereo not drawn) [Example 175, N-(3-Chloro-4-fluorophenyl)-4-(5-(3-fluoro-1-methyl-1H-pyrazol-4-yl)-5-hydroxyoctahydropentalen-2-yl)-1-methyl-1H-imidazole-5-carboxamide]: the EC50 was below 10 nM. The same measure, in the same setting: as for `Cn1cnc(C2CC3CC(O)(c4c(Cl)c(N)nn4C)CC3C2)c1C(=O)Nc1ccc(F)cc1` (stereo not drawn) [Example 103, 4-(5-(3-amino-4-chloro-1-methyl-1H-pyrazol-5-yl)-5-hydroxyoctahydropentalen-2-yl)-N-(4-fluorophenyl)-1-methyl-1H-imidazole-5-carboxamide], the figure is below 10 nM; as for `CC(CO)Nc1cc(C2(O)CC3CC(c4ncn(C)c4C(=O)Nc4ccc(F)c(Cl)c4)CC3C2)n(C)n1` (stereo not drawn) [Example 217, N-(3-Chloro-4-fluorophenyl)-4-(5-hydroxy-5-(3-((1-hydroxypropan-2-yl)amino)-1-methyl-1H-pyrazol-5-yl)octahydropentalen-2-yl)-1-methyl-1H-imidazole-5-carboxamide], below 10 nM; as for `Cn1cnc(C2CC3CC(O)(c4c[nH]nc4C(F)F)CC3C2)c1C(=O)Nc1ccc(F)c(Cl)c1` (stereo not drawn) [Example 170, N-(3-Chloro-4-fluorophenyl)-4-(5-(3-(difluoromethyl)-1H-pyrazol-4-yl)-5-hydroxyoctahydropentalen-2-yl)-1-methyl-1H-imidazole-5-carboxamide], below 10 nM. On to `Cn1cnc(C2CC3CC(O)(c4c(F)c(OCC(C)(C)O)nn4C)CC3C2)c1C(=O)Nc1ccc(F)c(Cl)c1` (stereo not drawn) [Example 212, N-(3-Chloro-4-fluorophenyl)-4-(5-(4-fluoro-3-(2-hydroxy-2-methylpropoxy)-1-methyl-1H-pyrazol-5-yl)-5-hydroxyoctahydropentalen-2-yl)-1-methyl-1H-imidazole-5-carboxamide], for which the 50% effective concentration (EC50) is below 10 nM. Regarding `Cn1cnc(C2CC3CC(O)(c4c(F)c(O)nn4C)CC3C2)c1C(=O)Nc1ccc(F)c(Cl)c1` (stereo not drawn) [Example 61, N-(3-Chloro-4-fluorophenyl)-4-(5-(4-fluoro-3-hydroxy-1-methyl-1H-pyrazol-5-yl)-5-hydroxyoctahydropentalen-2-yl)-1-methyl-1H-imidazole-5-carboxamide], the concentration giving a half-maximal response (EC50) is below 10 nM.

For `CCn1nc(C(F)(F)F)cc1C1(O)CC2CC(c3ncn(C)c3C(=O)Nc3ccc(F)c(Cl)c3)CC2C1` (stereo not drawn) [Example 173, N-(3-Chloro-4-fluorophenyl)-4-(5-(1-ethyl-3-(trifluoromethyl)-1H-pyrazol-5-yl)-5-hydroxyoctahydropentalen-2-yl)-1-methyl-1H-imidazole-5-carboxamide], the EC50 was below 10 nM. As to `Cn1cc(F)c(C2(O)CC3CC(c4ncn(C)c4C(=O)Nc4ccc(F)c(Cl)c4)CC3C2)n1` (stereo not drawn) [Example 136, N-(3-chloro-4-fluorophenyl)-4-(5-(4-fluoro-1-methyl-1H-pyrazol-3-yl)-5-hydroxyoctahydropentalen-2-yl)-1-methyl-1H-imidazole-5-carboxamide], the concentration for a half-maximal effect (EC50) is below 10 nM. The same measure, in the same setting: as for `CCOC(=O)Oc1cc(C2(O)CC3CC(c4ncn(C)c4C(=O)Nc4ccc(F)c(Cl)c4)CC3C2)n(C)n1` (stereo not drawn) [Example 222, 5-(5-(5-((3-Chloro-4-fluorophenyl)carbamoyl)-1-methyl-1H-imidazol-4-yl)-2-hydroxyoctahydropentalen-2-yl)-1-methyl-1H-pyrazol-3-yl ethyl carbonate], the figure is below 10 nM. Consider `Cn1cnc(C2CC3CC(O)(c4cc(Cl)nn4C)CC3C2)c1C(=O)Nc1ccc(F)c(Cl)c1` (single isomer, unassigned) [Example 73, 4-(5-(3-Chloro-1-methyl-1H-pyrazol-5-yl)-5-hydroxyoctahydropentalen-2-yl)-N-(3-chloro-4-fluorophenyl)-1-methyl-1H-imidazole-5-carboxamide], for which the EC50 was below 10 nM.

Staying with this test, now noted: viral load lowering, 5 days, qPCR of supernatant, read-out: VL HepAD38 EC50 range.
Turning to `Cn1cnc(-c2ccc(C3CCC(c4ncn(C)c4C(=O)Nc4ccc(F)c(Cl)c4)C3)cc2)c1` (stereo not drawn) [Example 15, N-(3-Chloro-4-fluorophenyl)-1-methyl-4-(3-(4-(1-methyl-1H-imidazol-4-yl)phenyl)cyclopentyl)-1H-imidazole-5-carboxamide], the 50% effective concentration (EC50) is below 10 nM.

What is called EC50 is the concentration needed to bring the measured effect to its halfway point.

These data come from US12655130B2 (ASSEMBLY BIOSCIENCES, INC., priority 2020, dated 2026).
